We go through four molecules from patent US20230090255A1, “MAGL INHIBITOR, PREPARATION METHOD THEREFOR AND USE THEREOF” (LUNAN PHARMACEUTICAL GROUP CORPORATION, priority 2019, published 2023).

Series [1] concerns mice forced swimming test. In words: Mice forced swimming test. The class given is in vivo, ICR mice. Conditions: for Accumulated immobility time: forced swimming, 6 min, 5 mg/kg intragastric once per day 10 d, 1 h after final administration. On the procedure:
(§1) Male ICR mice having a body weight of 18-22 g. The animals were active on a schedule of normal illumination for 12 h and in the dark for 12 h. Environmental temperature and relative humidity were relatively kept for 22±1° C. and 55±5%.
(§2) There were 7 groups of laboratory mice, 10 pieces each group, set as a control group (normal saline), a positive control group (fluoxetine hydrochloride capsule, 5 mg/kg), 5 MAGLZ-II series of administration treatment groups: MAGLZ-II-06, MAGLZ-II-07, MAGLZ-II-11, MAGLZ-II-17 and MAGLZ-II-18, respectively, with an administration concentration of 5 mg/kg.
(§3) All medicaments were used once per day via intragastric administration with a dose of 20 mL/kg (body weight), lasting for 10 d. 1 h later after the final administration, the detection of animal behaviors was started.
Mice forced swimming test was performed according to the method established by Porsolt (Porsolt R D. Behavioural despair in mice: A primary screening test for antidepressants[J]. Arch. Int. Pharmacolodyn. 1977, 229). […] Each mouse was judged as still when stopped struggling, kept suspension in water and only made necessary movement to keep the head above the water.
(§4) All data are shown by x̅±SD, and the comparison among groups is analyzed by one-way variance.

Series [2] concerns mice tail suspension test. The series is described as follows: Mice tail suspension test. In kind it is in vivo, ICR mice. The following applies: final 4 min of 6 min, 5 mg/kg intragastric once per day 10 d. On the procedure:
as §1, §2, §3
The tail suspension test (TST) was performed by the method established by Porsolt, et al. (Porsolt R D, Le Pichon M, Jalfre M. Depression: a new animal model sensitive to antidepressant treatments[J]. Nature, 1977, 266(5604):730-732). Mice were respectively suspended on the tail portions with tail suspension clamps at a distance of 10 mm away from the tail portion of the box (250 mm×250 mm×300 mm) and a distance of 5 cm where the head of each mouse was away from the bottom portion. Noise was tested in a dark room having minimum background, and each mouse was suspended for 6 min, and an immobility time was recorded at intervals in the final 4 min. Judgment standard: the mice stopped struggling and kept still completely.
as §4

The target in series [3] is T1, recombinant human protein MAGL (Homo sapiens, UniProt Q99685).
T1 construct: purchased Cayman
T1 sequence (Q99685 1-303): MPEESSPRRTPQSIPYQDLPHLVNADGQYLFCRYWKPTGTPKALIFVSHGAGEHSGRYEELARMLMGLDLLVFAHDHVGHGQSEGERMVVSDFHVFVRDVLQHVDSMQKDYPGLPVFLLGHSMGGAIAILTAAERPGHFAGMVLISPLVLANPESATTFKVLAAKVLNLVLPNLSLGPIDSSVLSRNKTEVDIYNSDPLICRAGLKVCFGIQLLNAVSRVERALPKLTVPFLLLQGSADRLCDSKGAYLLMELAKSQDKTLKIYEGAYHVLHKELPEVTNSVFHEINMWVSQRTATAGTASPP
The series is described as follows: MAGL enzyme analysis (Cayman MAGL inhibitor screening kit). The class given is biochemical. Conditions: 4-nitrophenylacetic acid substrate, absorbance 410 nm, read-out: MAGLXIC50. As to the method:
150 µL 1Xassay buffer, 10 µL recombinant human protein MAGL and 10 µL different concentrations of MAGL inhibitors (six points within 1 nM to 1000 nM) were added to per well of a 96-well plate. JZL195 (a positive control inhibitor) served as a positive control well, after incubation for 5 min at room temperature, per well was added with 10 µL MAGL substrate, and […] were vibrated for 10 s and placed for 10 min at room temperature, then an absorbance was detected at 410 nm. […] Graphad Prism 5.0 was taken to calculate IC50 curves fitting each inhibitor.

Series [4] relates to reserpine-induced mice depression. The series is described as follows: Reserpine-induced mice depression. In kind it is in vivo, ICR mouse. Also noted: Awakening / Finger contact / Head touch / Fear / Autonomic activity / Eyelid closure / Upright: scale not given here. The following applies: for Eyelid closure: 2 h after reserpine 4 mg/kg. As to the method:
• Species: ICR mouse • Microbiological level: SPF • Quantity and sex of the animals purchased: male: 75; female: 75 • Quantity and sex of the animals used: male: 75; female: 75 • Body weight: 13-18 g when accepted
Group design: there were 50 pieces for each batch of animals and 3 batches in total; each batch of animals were randomly divided into 5 groups; low, middle and high-dose groups of the samples for test, blank control group and model group; a sample for test was tested per batch.
3.1 Animals were administrated via subcutaneous injection per day with doses of 4, 8 and 16 mg/kg for 6 d in total. 2 h later after the final administration, each animal was subcutaneously injected with 4 mg/kg reserpine except the blank control group; afterwards, indicators, such as, awakening, finger contact, fear, head touch, autonomic activity, upright and eyelid closure were determined 2 h later.
Data statistics and analysis were completed via a computer by SPSS 17.0 software and office 2016, and data statistics was inspected by Kruskal-Wallis. If the Kruskal-Wallis inspection result is significant ((P<0.05), multiple comparison inspection is further performed by a Mann-Whitney U nonparametric test method.

Series [5] can be described thus: Tissue distribution test in mice. The class given is in vivo. Also noted: content in the brain (tissue distribution): unit not given here. Conditions: 16 mg/kg subcutaneous injection.

Structures can show the parent of a compound that is named as a salt.

In the case of `O=C(Nc1cccc(Cl)c1)C1CCN(C(=O)c2ccc3ccccc3c2)CC1` [MAGLZ-II-17], the Accumulated immobility time turned out to be 79.38±41.67 S in series [1] and 89.87±29.68 S in series [2]. Moreover, the IC50 in series [3] was 0.015 µM. Moreover, the “effect on reserpine-induced depression (conclusion)” value in series [4] (4, 8 and 16 mg/kg sc 6 d) is listed as “may enhance the effect”. Moreover, the Eyelid closure in series [4] (high dose 16 mg/kg sc 6 d) is on record as 0.25±0.66; in series [4] (low dose 4 mg/kg sc 6 d), 2.25±0.66; in series [4] (middle dose 8 mg/kg sc 6 d) it was 1±1.00. In series [5], the “content in the brain, ranking of the test substances” value is reported as “ranking the second”. Also, the “content in the brain (tissue distribution)” value in series [5] (1.0 h) turned out to be 2.9; in series [5] (2.0 h), 9.4; in series [5] (5.0 h) it was 4.8.

Consider `COc1cccc(C(=O)N2CCC(C(=O)Nc3ccc(Cl)cc3)CC2)c1` [MAGLZ-II-07], for which the Accumulated immobility time is 91.31±41.85 S in series [1] and 89.66±31.52 S in series [2].

`O=C(Nc1cccc(O)c1)C1CCN(C(=O)c2ccc(Cl)cc2)CC1` [MAGLZ-II-06]: the Accumulated immobility time in series [1] is reported as 89.23±46.37 S; in series [2], 90.73±30.51 S.

On to `CNCCC(Oc1ccc(C(F)(F)F)cc1)c1ccccc1` (stereo not drawn) [Fluoxetine hydrochloride capsule, Fluoxetine hydrochloride, reference compound], for which the “accumulated immobility time of mice forced swimming test, in words” value in series [1] (5 mg/kg intragastric 10 d, P<0.05) was “obviously shorten”. Moreover, the figures for the Accumulated immobility time in series [1] and in series [2] were 92.64±29.17 S and 92.19±23.63 S, respectively.
